Consider 13 compounds from patent US10717764B2, “Therapeutically active compounds and their methods of use” (Agios Pharmaceuticals, Inc., priority 2013, dated 2020).

For assay [1], the system named is U87MG cells (2-HG production). Nature of the assay: Cellular assay, inhibition of 2-HG production in U87MG cells. Type of assay: cell-based. As to the method:
(§1) Cells (HT1080 or U87MG) are grown in T125 flasks in DMEM containing 10% FBS, 1× penicillin/streptomycin and 500 ug/mL G418 (present in U87MG cells only). They are harvested by trypsin and seeded into 96 well white bottom plates at a density of 5000 cell/well in 100 ul/well in DMEM with 10% FBS. […] Cells are incubated overnight at 37° C. in 5% CO2. The next day test compounds are made up at 2× the final concentration and 100 ul are added to each cell well. The final concentration of DMSO is 0.2% and the DMSO control wells are plated in row G. The plates are then placed in the incubator for 48 hours. […] The cell plate is placed back in the incubator for another 24 hours. At 72 hours post compound addition, 10 mL/plate of Promega Cell Titer Glo reagent is thawed and mixed. The cell plate is removed from the incubator and allowed to equilibrate to room temperature. Then 100 ul of Promega Cell Titer Glo reagent is added to each well of media. The cell plate is then placed on an orbital shaker for 10 minutes and then allowed to sit at room temperature for 20 minutes. The plate is then read for luminescence with an integration time of 500 ms.

For assay [2], the system named is HT1080 cells (2-HG production). The assay is described as follows: Cellular assay, inhibition of 2-HG production in HT1080 cells. Particulars: Homo sapiens, HT-1080, 48 h. Type of assay: cell-based. The protocol: as §1
The mark [3] stands for this setting: inhibition of 2-HG production, U87MG cells, 48 hours.

pIC50: −log10 of the molar value.

In the case of “(S)—N—((S)-1-(2-Chlorophenyl)-2-((3,3-difluorocyclobutyl)amino)-2-oxoethyl)-1-(4-cyanopyridin-2-yl)-N-(3,5-difluorophenyl)-5-oxopyrrolidine-2-carboxamide [Compound 71]”, in assay [1] (setting [3]), the pIC50 was over 7.00.

`N#Cc1ccnc(N2C(=O)CC[C@H]2C(=O)N(c2cc(F)cc(F)c2)[C@H](C(=O)NC2CC(F)(F)C2)c2ccccc2F)c1` [Compound 208, (S)-1-(4-Cyanopyridin-2-yl)-N—((S)-2-(3,3-difluorocyclobutylamino)-1-(2-fluorophenyl)-2-oxoethyl)-N-(3,5-difluorophenyl)-5-oxopyrrolidine-2-carboxamide]: the pIC50 in assay [1] (Homo sapiens, U-87 MG, 48 h) was over 7.00.

As to `O=C(NC1CC(F)(F)C1)[C@H](c1ccccc1Cl)N(C(=O)[C@@H]1CCC(=O)N1c1ccccn1)c1cccc(F)c1` [Compound 5], in assay [1] (Homo sapiens, U-87 MG, 48 h), the pIC50 was 6.30 to 7.00.

Take `N#Cc1cccc(N2C(=O)OC[C@H]2C(=O)N(c2cccc3cn[nH]c23)[C@H](C(=O)NC2CCC(F)(F)CC2)c2ccccc2Cl)c1` [Compound 142, (S)—N—((S)-1-(2-Chlorophenyl)-2-(4,4-difluorocyclohexylamino)-2-oxoethyl)-3-(3-cyanophenyl)-N-(1H-indazol-7-yl)-2-oxooxazolidine-4-carboxamide]: the negative logarithm of the IC50 (pIC50) in assay [1] (setting [3]) is over 7.00.

Regarding “(S)—N—((S)-1-(2-Chlorophenyl)-2-((3,3-difluorocyclobutyl)amino)-2-oxoethyl)-1-(4-cyanopyridin-2-yl)-N-(1H-indazol-6-yl)-5-oxopyrrolidine-2-carboxamide [Compound 205]”, in assay [1] (setting [3]), the pIC50 is over 7.00.

Take “(S)—N—((S)-1-(2-Chlorophenyl)-2-(3,3-difluorocyclobutylamino)-2-oxoethyl)-N-(3-cyano-5-fluorophenyl)-3-(3-cyanophenyl)-2-oxooxazolidine-4-carboxamide [Compound 134]”: the negative-log IC50 (pIC50) in assay [1] (setting [3]) is over 7.00.

In turn, `O=C(NC1CCCCC1)[C@@H](c1ccccc1Cl)N(C(=O)[C@@H]1CCC(=O)N1c1ncccn1)c1cccc(F)c1` [Compound 6] showed a pIC50 in assay [2] of 6.30 to 7.00.

For the compound `CS(=O)(=O)c1cc(F)cc(N(C(=O)[C@@H]2CCC(=O)N2c2cc(C#N)ccn2)C(C(=O)NC2CC(F)(F)C2)c2ccccc2Cl)c1` (stereo partly drawn) [Compound 110, (2S)—N-(1-(2-Chlorophenyl)-2-((3,3-difluorocyclobutyl)amino)-2-oxoethyl)-1-(4-cyanopyridin-2-yl)-N-(3-fluoro-5-(methylsulfonyl)phenyl)-5-oxopyrrolidine-2-carboxamide], the negative logarithm of the IC50 (pIC50) in assay [1] (Homo sapiens, U-87 MG, 48 h) is over 7.00.

With `C[C@]1(O)C[C@@H](C(=O)N(c2cccc(F)c2)[C@H](C(=O)NC2CC(F)(F)C2)c2ccccc2Cl)N(c2cc(C#N)ccn2)C1=O` (stereo in doubt) [Compound 183, (2S)—N—((R)-1-(2-chlorophenyl)-2-(3,3-difluorocyclobutylamino)-2-oxoethyl)-1-(4-cyanopyridin-2-yl)-N-(3-fluorophenyl)-4-hydroxy-4-methyl-5-oxopyrrolidine-2-carboxamide], the pIC50 in assay [1] (Homo sapiens, U-87 MG, 48 h) was over 7.00.

With `O=C(N[C@H]1CCC(F)(F)C1)[C@H](c1ccccc1Cl)N(C(=O)[C@@H]1CCC(=O)N1c1ncccn1)c1cccc(F)c1` (stereo in doubt) [Compound 73], in assay [1] (Homo sapiens, U-87 MG, 48 h), the negative-log IC50 (pIC50) is over 7.00.

For the compound “(S)—N—((S)-1-(2-Chlorophenyl)-2-(3,3-difluorocyclobutylamino)-2-oxoethyl)-1-(3-cyano-phenyl)-N-(1H-indazol-7-yl)-5-oxopyrrolidine-2-carboxamide [Compound 186]”, in assay [1] (setting [3]), the pIC50 is over 7.00.

“(S)-tert-butyl 3-(((S)-1-(2-chlorophenyl)-2-((3,3-difluorocyclobutyl) amino)-2-oxoethyl)(3,5-difluorophenyl)carbamoyl)-5-oxopiperazine-1-carboxylate [Compound 97]” had a negative logarithm of the IC50 (pIC50) in assay [1] (setting [3]) of over 7.00.

Turning to “(S)—N—((S)-1-(2-Chlorophenyl)-2-((4,4-difluorocyclohexyl)amino)-2-oxoethyl)-1-(4-cyanopyridin-2-yl)-N-(1H-indazol-6-yl)-5-oxopyrrolidine-2-carboxamide [Compound 136]”, in assay [1] (setting [3]), the pIC50 was over 7.00.
